{"source": "ChEMBL document CHEMBL5241118", "about": "“4-Aminopyrazolopyrimidine scaffold and its deformation in the design of tyrosine and serine/threonine kinase inhibitors in medicinal chemistry” (RSC Med Chem, 2022)", "key": {"[1]": {"biological_target": "Phosphatidylinositol 4,5-bisphosphate 3-kinase catalytic subunit alpha isoform (Homo sapiens, UniProt P42336)", "sequence (P42336 whole entry, canonical isoform)": "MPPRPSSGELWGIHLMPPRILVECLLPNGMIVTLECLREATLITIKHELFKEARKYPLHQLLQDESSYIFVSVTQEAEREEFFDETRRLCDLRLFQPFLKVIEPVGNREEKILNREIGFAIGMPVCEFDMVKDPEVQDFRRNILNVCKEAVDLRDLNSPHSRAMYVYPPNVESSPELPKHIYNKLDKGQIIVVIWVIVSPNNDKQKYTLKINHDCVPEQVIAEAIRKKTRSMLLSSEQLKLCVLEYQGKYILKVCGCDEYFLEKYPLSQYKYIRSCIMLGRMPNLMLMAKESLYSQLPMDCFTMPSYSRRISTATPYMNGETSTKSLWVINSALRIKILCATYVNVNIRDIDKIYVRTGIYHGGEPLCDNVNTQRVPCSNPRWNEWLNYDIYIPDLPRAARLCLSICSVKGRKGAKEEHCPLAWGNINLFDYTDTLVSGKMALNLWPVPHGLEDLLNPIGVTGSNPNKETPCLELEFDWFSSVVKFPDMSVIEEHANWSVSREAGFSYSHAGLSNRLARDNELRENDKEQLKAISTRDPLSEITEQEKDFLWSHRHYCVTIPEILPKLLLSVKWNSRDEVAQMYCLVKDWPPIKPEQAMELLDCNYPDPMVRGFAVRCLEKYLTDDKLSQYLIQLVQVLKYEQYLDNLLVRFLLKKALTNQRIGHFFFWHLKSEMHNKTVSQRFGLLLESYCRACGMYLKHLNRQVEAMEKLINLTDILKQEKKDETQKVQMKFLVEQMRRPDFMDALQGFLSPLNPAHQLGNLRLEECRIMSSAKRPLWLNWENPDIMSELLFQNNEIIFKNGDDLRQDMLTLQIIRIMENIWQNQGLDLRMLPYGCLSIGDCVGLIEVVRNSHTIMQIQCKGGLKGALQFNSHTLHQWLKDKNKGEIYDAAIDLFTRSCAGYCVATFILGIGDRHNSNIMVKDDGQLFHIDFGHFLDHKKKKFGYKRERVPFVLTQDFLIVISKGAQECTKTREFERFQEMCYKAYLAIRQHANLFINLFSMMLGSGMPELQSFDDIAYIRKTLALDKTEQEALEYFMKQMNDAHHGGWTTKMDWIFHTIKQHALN", "test": "Binding affinity to PI3Kalpha (unknown origin) assessed as dissociation constant"}, "[2]": {"biological_target": "Phosphatidylinositol 4,5-bisphosphate 3-kinase catalytic subunit beta isoform (Homo sapiens, UniProt P42338)", "sequence (P42338 whole entry, canonical isoform)": "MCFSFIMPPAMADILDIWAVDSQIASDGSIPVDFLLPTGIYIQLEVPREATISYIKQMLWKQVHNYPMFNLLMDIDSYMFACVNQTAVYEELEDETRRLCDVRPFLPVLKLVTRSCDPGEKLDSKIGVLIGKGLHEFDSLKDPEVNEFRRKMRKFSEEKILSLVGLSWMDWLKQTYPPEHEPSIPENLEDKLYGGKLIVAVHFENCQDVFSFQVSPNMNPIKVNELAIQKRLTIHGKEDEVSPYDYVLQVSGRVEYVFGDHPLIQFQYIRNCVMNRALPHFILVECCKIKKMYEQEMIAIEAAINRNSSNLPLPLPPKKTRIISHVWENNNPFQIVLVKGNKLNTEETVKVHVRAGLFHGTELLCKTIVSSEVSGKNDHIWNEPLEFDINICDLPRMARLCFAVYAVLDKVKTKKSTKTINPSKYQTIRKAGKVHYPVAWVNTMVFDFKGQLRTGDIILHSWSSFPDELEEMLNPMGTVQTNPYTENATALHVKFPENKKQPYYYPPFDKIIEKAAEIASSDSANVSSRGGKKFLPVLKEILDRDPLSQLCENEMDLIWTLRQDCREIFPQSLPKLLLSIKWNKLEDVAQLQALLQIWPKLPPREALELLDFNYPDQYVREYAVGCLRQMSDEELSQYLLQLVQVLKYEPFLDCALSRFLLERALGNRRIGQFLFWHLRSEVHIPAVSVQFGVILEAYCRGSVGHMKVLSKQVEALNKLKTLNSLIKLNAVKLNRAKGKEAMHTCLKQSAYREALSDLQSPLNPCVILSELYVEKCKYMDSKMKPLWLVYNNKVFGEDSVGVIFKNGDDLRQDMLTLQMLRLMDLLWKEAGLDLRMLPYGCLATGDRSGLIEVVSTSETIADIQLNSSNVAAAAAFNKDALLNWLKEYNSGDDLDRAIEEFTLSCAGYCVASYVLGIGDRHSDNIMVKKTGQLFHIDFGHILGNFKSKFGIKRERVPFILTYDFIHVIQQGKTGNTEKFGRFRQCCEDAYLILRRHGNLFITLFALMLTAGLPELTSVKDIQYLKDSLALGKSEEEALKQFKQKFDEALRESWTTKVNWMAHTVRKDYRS", "test": "Binding affinity to PI3Kbeta (unknown origin) assessed as dissociation constant"}, "[3]": {"biological_target": "Phosphatidylinositol 4,5-bisphosphate 3-kinase catalytic subunit gamma isoform (Homo sapiens, UniProt P48736)", "sequence (P48736 whole entry, canonical isoform)": "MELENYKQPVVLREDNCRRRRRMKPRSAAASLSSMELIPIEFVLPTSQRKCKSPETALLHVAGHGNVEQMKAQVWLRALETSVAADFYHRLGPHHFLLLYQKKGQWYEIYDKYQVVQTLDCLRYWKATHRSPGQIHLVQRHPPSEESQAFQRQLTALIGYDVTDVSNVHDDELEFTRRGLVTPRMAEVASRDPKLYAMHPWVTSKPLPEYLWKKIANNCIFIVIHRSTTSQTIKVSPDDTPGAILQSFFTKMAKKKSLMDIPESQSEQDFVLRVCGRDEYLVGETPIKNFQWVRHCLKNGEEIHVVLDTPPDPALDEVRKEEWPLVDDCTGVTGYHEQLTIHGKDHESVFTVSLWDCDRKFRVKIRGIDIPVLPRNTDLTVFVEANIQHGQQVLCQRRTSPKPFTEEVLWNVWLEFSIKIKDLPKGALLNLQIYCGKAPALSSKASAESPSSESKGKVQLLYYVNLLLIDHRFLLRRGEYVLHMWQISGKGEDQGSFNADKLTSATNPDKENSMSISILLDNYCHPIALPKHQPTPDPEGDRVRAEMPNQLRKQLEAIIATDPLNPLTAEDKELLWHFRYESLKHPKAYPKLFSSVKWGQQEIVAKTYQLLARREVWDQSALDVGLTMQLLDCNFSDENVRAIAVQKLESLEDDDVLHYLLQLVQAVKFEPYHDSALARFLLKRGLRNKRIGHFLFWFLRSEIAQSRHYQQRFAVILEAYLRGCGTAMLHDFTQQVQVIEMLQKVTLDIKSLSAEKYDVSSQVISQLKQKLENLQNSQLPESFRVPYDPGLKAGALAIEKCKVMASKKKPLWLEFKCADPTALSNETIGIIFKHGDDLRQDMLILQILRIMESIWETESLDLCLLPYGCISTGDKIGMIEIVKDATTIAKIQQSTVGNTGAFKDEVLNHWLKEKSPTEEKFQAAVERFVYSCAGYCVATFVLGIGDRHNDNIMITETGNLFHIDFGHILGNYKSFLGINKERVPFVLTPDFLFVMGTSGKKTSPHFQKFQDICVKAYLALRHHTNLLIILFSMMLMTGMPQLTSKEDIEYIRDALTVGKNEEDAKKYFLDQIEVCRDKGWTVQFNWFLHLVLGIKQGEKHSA", "test": "Binding affinity to PI3Kgamma (unknown origin) assessed as dissociation constant"}, "HBL": {"system": "HBL", "test": "Antiproliferative activity against human HBL cells assessed as inhibition of cell growth", "type": "functional"}, "[4]": {"biological_target": "Proto-oncogene tyrosine-protein kinase Src (Homo sapiens, UniProt P12931)", "sequence (P12931 2-536 limits assumed)": "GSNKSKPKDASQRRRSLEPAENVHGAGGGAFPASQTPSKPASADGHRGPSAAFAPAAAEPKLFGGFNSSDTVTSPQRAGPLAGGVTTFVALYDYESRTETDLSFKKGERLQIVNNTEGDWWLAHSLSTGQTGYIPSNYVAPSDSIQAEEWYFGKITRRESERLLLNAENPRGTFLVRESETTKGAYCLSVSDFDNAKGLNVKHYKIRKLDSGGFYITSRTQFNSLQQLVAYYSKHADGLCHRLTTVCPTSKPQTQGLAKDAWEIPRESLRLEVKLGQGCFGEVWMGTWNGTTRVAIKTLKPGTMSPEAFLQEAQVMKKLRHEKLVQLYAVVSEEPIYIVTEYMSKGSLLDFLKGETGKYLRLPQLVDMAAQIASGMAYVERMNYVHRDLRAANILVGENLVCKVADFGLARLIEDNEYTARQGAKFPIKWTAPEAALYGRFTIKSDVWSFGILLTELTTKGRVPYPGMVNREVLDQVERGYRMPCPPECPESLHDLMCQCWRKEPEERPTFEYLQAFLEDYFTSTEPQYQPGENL", "test": "Inhibition of Src kinase (unknown origin) phosphorylation at Tyr416/419 residues incubated for 24 hrs by Western blot analysis"}, "[5]": {"biological_target": "Tyrosine-protein kinase Lck (Homo sapiens, UniProt P06239)", "sequence (P06239 whole entry, the tested form may be a part)": "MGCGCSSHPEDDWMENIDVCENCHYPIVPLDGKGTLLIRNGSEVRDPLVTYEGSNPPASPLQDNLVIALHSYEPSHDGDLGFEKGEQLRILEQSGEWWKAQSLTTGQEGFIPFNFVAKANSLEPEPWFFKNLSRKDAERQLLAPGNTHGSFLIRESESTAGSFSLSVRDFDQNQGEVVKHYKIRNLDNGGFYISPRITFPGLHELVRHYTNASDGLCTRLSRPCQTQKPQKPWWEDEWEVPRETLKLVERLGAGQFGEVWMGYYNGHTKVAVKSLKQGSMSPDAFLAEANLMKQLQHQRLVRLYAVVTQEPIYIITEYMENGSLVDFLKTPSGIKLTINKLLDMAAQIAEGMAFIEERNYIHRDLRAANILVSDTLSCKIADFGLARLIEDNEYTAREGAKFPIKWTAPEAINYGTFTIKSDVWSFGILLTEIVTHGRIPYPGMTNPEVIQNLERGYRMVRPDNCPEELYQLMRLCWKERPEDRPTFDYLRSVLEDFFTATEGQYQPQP", "test": "Inhibition of His-tagged LCK (62 to 509 residues) (unknown origin) expressed in Sf9 insect cells at 10 uM using poly (Glu, Tyr) 4:1 as substrate incubated for 1 hr by spectrometric analysis"}, "[6]": {"biological_target": "Tyrosine-protein kinase Lyn (Homo sapiens, UniProt P07948)", "sequence (P07948 whole entry)": "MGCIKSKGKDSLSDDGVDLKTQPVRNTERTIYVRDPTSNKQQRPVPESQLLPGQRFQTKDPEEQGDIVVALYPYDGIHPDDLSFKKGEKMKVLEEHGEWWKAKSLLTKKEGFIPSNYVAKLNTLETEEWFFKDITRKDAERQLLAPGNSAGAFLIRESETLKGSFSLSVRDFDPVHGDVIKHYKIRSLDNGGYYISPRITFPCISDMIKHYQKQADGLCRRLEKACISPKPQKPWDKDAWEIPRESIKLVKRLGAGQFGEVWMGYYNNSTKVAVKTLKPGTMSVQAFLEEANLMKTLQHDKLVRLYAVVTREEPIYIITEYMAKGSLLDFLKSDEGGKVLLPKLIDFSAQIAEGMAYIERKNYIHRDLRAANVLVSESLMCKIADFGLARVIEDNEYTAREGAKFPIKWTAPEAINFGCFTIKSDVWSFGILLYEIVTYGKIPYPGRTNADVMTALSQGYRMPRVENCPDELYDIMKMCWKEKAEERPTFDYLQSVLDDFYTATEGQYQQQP", "test": "Inhibition of LYN (unknown origin)"}, "MDA-MB-231 [7]": {"system": "MDA-MB-231", "test": "Antitumor activity against human MDA-MB-231 cells xenografted in athymic nude mouse assessed as the inhibition of tumor growth at 25 mg/kg, ip administered twice daily for 14 days relative to control", "type": "functional", "conditions": "MDA-MB-231, 336 h, time 14 day, read-out: TGI"}, "MDA-MB-231 [8]": {"system": "MDA-MB-231", "test": "Antitumor activity against human MDA-MB-231 cells xenografted in athymic nude mouse assessed as the inhibition of tumor growth at 65 mg/kg, ip measured at 24 hrs post-dose relative to control", "conditions": "MDA-MB-231, 24 h, read-out: TGI"}}, "data": [{"smiles": "CC(C)Oc1ccc(-c2nn([C@H](C)c3oc4ccc(F)cc4c(=O)c3-c3cccc(F)c3)c3ncnc(N)c23)cc1F", "values": [{"measurement": "Kd", "setting": "[1]", "result": "> 10000", "unit": "nM"}, {"measurement": "Kd", "setting": "[2]", "result": "> 10000", "unit": "nM"}, {"measurement": "Kd", "setting": "[3]", "result": "> 1400", "unit": "nM"}]}, {"smiles": "Nc1ncnc2c1c(-c1ccc(Oc3ccccc3)cc1)nn2[C@@H]1CCCN(C(=O)c2cn(CCOCCOCCOCCNc3cccc4c3C(=O)N(C3CCC(=O)NC3=O)C4=O)nn2)C1", "note": "(some centres undefined)", "values": [{"measurement": "GI50", "setting": "HBL", "result": 28, "unit": "nM"}]}, {"smiles": "CN1CCN([C@H]2CC[C@H](n3cc(-c4ccc(Oc5ccccc5)cc4)c4c(N)ncnc43)CC2)CC1", "values": [{"measurement": "IC50", "setting": "[4]", "result": 9, "unit": "nM"}, {"measurement": "IC50", "setting": "[5]", "result": "< 3", "unit": "nM"}, {"measurement": "IC50", "setting": "[6]", "result": "< 3", "unit": "nM"}]}, {"smiles": "COc1cccc2cc(-c3nc([C@H]4CC[C@H](C(=O)O)CC4)n4ncnc(N)c34)[nH]c12", "note": "[OSI-027]", "values": [{"measurement": "inhibition in vivo at 25 mg/kg", "setting": "MDA-MB-231 [7]", "result": 90, "unit": "%"}, {"measurement": "inhibition in vivo at 65 mg/kg", "setting": "MDA-MB-231 [8]", "result": 100, "unit": "%"}]}]}
